In experiment [1] the target is Vps34 enzyme (Homo sapiens (Human), UniProt Q8NEB9). Nature of the experiment: Vps34 Biochemical Assay (Adapta kinase assay, TR-FRET). To be noted: 20 μM ATP and 200 μM PI:PS in substrate mix, 1 h at room temperature, read-out: Median IC50 nM Adapta. As to the method: Dilution series of compounds of the invention were prepared in DMSO at 100 times the final assay concentration (n1=n0/3 in 10 points). The compounds were further diluted to 4 times the assay concentration in assay buffer (Life technologies buffer Q, PV5125, diluted 5 times supplemented with 2 mM DTT and 2 mM MnCl2). 2.5 μl of the diluted compounds were added to a 384 well assay plate followed by 2.5 μl of 16.5 nM Vps34 enzyme (Life technologies, PV5126). Enzyme and compounds were pre-incubated at rt for 15 min. Then 5 μl of substrate mix containing 20 μM ATP (Life technologies, PV3227) and 200 μM PI:PS substrate (Life technologies, PV5122) in assay buffer was added to the wells containing compound and enzyme. Mixing was performed by pipetting several times. The reaction was incubated at room temperature for 1 h. Then 5 μl stop-detection mix, prepared as described in the Adapta kinase assay kit instructions (Life technologies, PV5099) containing Adapta Eu-anti-ADP antibody (2.3 nM), Alexa Fluor 647 ADP tracer (9 nM) and EDTA (30 mM) in TR-FRET buffer, was added to quench the reaction. Mixing was performed by pipetting several times. The assay plate was then incubated at room temperature for 30 min and read with Artemis micro plate reader. Percent inhibition of the compounds as compared to DMSO treated control samples was calculated. By the use of Dotmatics software compound concentration versus percent inhibition was fitted to generate IC50 values.
Chain of Vps34 enzyme (Q8NEB9 whole entry): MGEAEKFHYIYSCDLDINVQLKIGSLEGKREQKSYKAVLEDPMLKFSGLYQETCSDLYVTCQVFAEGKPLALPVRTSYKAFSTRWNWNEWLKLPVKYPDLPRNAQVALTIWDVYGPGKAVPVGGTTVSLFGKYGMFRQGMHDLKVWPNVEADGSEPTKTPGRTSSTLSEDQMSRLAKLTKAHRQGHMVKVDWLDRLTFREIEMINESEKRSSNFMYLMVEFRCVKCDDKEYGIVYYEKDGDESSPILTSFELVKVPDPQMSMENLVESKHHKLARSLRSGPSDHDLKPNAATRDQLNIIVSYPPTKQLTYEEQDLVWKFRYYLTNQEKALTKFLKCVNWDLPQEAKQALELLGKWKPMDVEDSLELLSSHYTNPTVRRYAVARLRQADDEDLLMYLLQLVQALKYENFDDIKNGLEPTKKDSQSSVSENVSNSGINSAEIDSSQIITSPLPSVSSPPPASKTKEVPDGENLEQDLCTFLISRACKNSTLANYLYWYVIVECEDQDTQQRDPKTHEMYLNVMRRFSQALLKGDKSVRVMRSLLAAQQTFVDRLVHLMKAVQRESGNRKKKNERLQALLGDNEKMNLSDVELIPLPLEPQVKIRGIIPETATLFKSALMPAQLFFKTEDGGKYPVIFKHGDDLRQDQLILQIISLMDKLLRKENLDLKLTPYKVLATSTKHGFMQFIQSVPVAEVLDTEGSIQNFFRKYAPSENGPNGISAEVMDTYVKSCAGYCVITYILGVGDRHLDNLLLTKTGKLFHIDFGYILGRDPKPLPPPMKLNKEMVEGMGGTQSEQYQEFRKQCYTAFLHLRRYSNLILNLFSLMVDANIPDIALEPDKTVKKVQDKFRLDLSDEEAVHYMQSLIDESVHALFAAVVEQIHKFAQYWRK
A general note: In TR-FRET formats the signal depends on donor and acceptor labels being close together.

Experiment [2] deals with Human osteosarcoma cells (HOS) stably expressing GFP-LC3. Nature of the experiment: High Content Screening Autophagy Assay (GFP-LC3 foci). Type of experiment: cell-based. Particulars: autophagy in HOS cells, activated with KU-0063794 500 nM plus Bafilomycin A1 5 nM, 6 hours, LC3-GFP foci area per cell, read-out: Median IC50 (nM) Cellular assay. As to the method: Human osteosarcoma cells (HOS) stably expressing a Green Fluorescent Protein (GFP) tagged LC3 (GFP-LC3) were used to determine the inhibitory effect on autophagy of proprietary compounds. For that purpose, autophagy was activated by using the mTOR inhibitor KU-0063794 at 500 nM in the presence of Bafilomycin A1 (Sigma-Aldrich) at 5 nM. Shortly, cells were plated overnight in clear bottom 96-well plates in DMEM—High Modified media (Hi-Clone Cat #SH30285.01). At the start of the experiment, the media was removed and replaced with fresh media containing the mTOR inhibitor, Bafilomycin A1 and the vehicle or a test compound as indicated. After 6 hours the media was removed, cells were washed twice with ice-cold phosphate buffered saline (PBS) and fixed with 4% paraformaldehyde for 20 minutes at room temperature. Then the cells were washed twice with ice-cold PBS before adding Hoechst 33342 at 1 μg/ml in PBS for nuclear staining. After incubation overnight at 4° C., cells were washed once with PBS to remove the excess of dye and 100 μl of PBS was added to each well. Images were acquired at 20× magnification, 6 images per well, using the ImageXpress automated microscope (Molecular Devices Inc.) and analyzed with MetaXpress software to identify LC3-GFP foci. Foci area per cell values were used to generate dose response curves and IC50 values were calculated using the non-linear fitting analysis in GraphPad Prism software. […] The results of the assay are shown in Table 2 (Median IC50 nM HOS-LC3).

Where only a bound is given, the exact number is not on record here.

The values below come from US11498919B2, “Azaindolylpyridone and diazaindolylpyridone compounds” (Sprint Bioscience AB, priority 2017, dated 2022).

Consider `O=c1cc(-c2ccnc3[nH]ccc23)cc(-c2ccccc2C(F)(F)F)[nH]1` [Example 4, 4-(1H-pyrrolo[2,3-b]pyridin-4-yl)-6-[2-(trifluoromethyl)phenyl]-1H-pyridin-2-one], for which the half-inhibitory concentration (IC50) in experiment [1] is less than 5 nM; in experiment [2] it was 665 nM. The matching figures for `Cc1cnccc1-c1cc(-c2ccnc3[nH]ccc23)cc(=O)[nH]1` [Example 6, 6-(3-Methyl-4-pyridyl)-4-(1H-pyrrolo[2,3-b]pyridin-4-yl)-1H-pyridin-2-one]: 20 nM and 2570 nM. The matching figures for `O=c1cc(-c2ccnc3[nH]ccc23)cc(N2CCCC2c2ccccc2)[nH]1` (centres unmarked) [Example 8, 6-(2-phenylpyrrolidin-1-yl)-4-(1H-pyrrolo[2,3-b]pyridin-4-yl)-1H-pyridin-2-one]: 10 nM and 366 nM. The matching figures for `Cc1cc2c(-c3cc(-c4cccnc4)[nH]c(=O)c3)ccnc2[nH]1` [Example 12, 4-(2-Methyl-1H-pyrrolo[2,3-b]pyridin-4-yl)-6-(3-pyridyl)-1H-pyridin-2-one]: 24 nM and 554 nM. As for `Cc1cc2c(-c3cc(N4CCOCC4)[nH]c(=O)c3)ccnc2[nH]1` [Example 16, 4-(2-Methyl-1H-pyrrolo[2,3-b]pyridin-4-yl)-6-morpholino-1H-pyridin-2-one], in experiment [1], the IC50 was found to be 12 nM.

Take `O=c1cc(-c2ccnc3[nH]c(-c4cnco4)cc23)cc(-c2ccccc2Cl)[nH]1` [Example 23, 6-(2-Chlorophenyl)-4-(2-oxazol-5-yl-1H-pyrrolo[2,3-b]pyridin-4-yl)-1H-pyridin-2-one]: the IC50 in experiment [1] is 8 nM; in experiment [2], 44 nM. The matching figures for `O=c1cc(-c2ccnc3[nH]c(-c4cccnc4)cc23)cc(-c2ccccc2Cl)[nH]1` [Example 27, 6-(2-Chlorophenyl)-4-[2-(3-pyridyl)-1H-pyrrolo[2,3-b]pyridin-4-yl]-1H-pyridin-2-one]: less than 5 nM and 16 nM. On the same counts, the results for `Cc1cc2c(-c3cc(-c4ccccc4Cl)[nH]c(=O)c3)ccnc2[nH]1` [Example 29, 6-(2-Chlorophenyl)-4-(2-methyl-1H-pyrrolo[2,3-b]pyridin-4-yl)-1H-pyridin-2-one] are less than 5 nM and 54 nM.

For `Cc1cc2c(-c3cc(N4CCCCC4C(F)(F)F)[nH]c(=O)c3)ccnc2[nH]1` (centres unmarked) [Example 36, 4-(2-Methyl-1H-pyrrolo[2,3-b]pyridin-4-yl)-6-[2-(trifluoromethyl)-1-piperidyl]-1H-pyridin-2-one], the IC50 is less than 5 nM in experiment [1] and 62 nM in experiment [2]. In the case of `O=c1cc(-c2ccnc3[nH]ccc23)cc(N2CCCCC2C(F)(F)F)[nH]1` (centres unmarked) [Example 37, 4-(1H-pyrrolo[2,3-b]pyridin-4-yl)-6-[2-(trifluoromethyl)-1-piperidyl]-1H-pyridin-2-one], the half-maximal inhibitory concentration (IC50) in experiment [1] was less than 5 nM; in experiment [2], 145 nM. As to `O=c1cc(-c2ccnc3[nH]ccc23)cc(N2CCOCC2C(F)(F)F)[nH]1` (centres unmarked) [Example 42, 4-(1H-pyrrolo[2,3-b]pyridin-4-yl)-6-[3-(trifluoromethyl)morpholin-4-yl]-1H-pyridin-2-one], the half-inhibitory concentration (IC50) in experiment [1] is less than 5 nM; in experiment [2], 473 nM. In the case of `O=c1cc(-c2ccnc3[nH]c(-c4cccc(C(F)(F)F)c4)cc23)cc(N2CCOCC2C(F)(F)F)[nH]1` (centres unmarked) [Example 45, 6-[3-(Trifluoromethyl)morpholin-4-yl]-4-[2-[3-(trifluoromethyl)phenyl]-1H-pyrrolo[2,3-b]pyridin-4-yl]-1H-pyridin-2-one], the IC50 in experiment [1] is 34 nM. As for `Cc1ccc(-c2cc3c(-c4cc(N5CCOCC5C(F)(F)F)[nH]c(=O)c4)ccnc3[nH]2)s1` (centres unmarked) [Example 48, 4-[2-(5-Methyl-2-thienyl)-1H-pyrrolo[2,3-b]pyridin-4-yl]-6-[3-(trifluoromethyl)morpholin-4-yl]-1H-pyridin-2-one], the IC50 in experiment [1] is less than 5 nM.

As to `O=c1cc(-c2ccnc3[nH]ncc23)cc(N2CCCCC2C(F)(F)F)[nH]1` (centres unmarked) [Example 49, 4-(1H-pyrazolo[3,4-b]pyridin-4-yl)-6-[2-(trifluoromethyl)-1-piperidyl]-1H-pyridin-2-one], the half-maximal inhibitory concentration (IC50) in experiment [1] was less than 5 nM; in experiment [2], 62 nM. Regarding `O=c1cc(-c2ccnc3[nH]c(-c4cnc(C(F)(F)F)nc4)cc23)cc(N2CCCCC2C(F)(F)F)[nH]1` (centres unmarked) [Example 52, 6-[2-(Trifluoromethyl)-1-piperidyl]-4-[2-[2-(trifluoromethyl)pyrimidin-5-yl]-1H-pyrrolo[2,3-b]pyridin-4-yl]-1H-pyridin-2-one], the concentration for half-maximal inhibition (IC50) in experiment [1] was less than 5 nM. Regarding `O=c1cc(-c2ccnc3[nH]c(-c4ccc(C(F)(F)F)nc4)cc23)cc(N2CCCCC2C(F)(F)F)[nH]1` (centres unmarked) [Example 55, 6-[2-(Trifluoromethyl)-1-piperidyl]-4-[2-[6-(trifluoromethyl)-3-pyridyl]-1H-pyrrolo[2,3-b]pyridin-4-yl]-1H-pyridin-2-one], in experiment [1], the IC50 was less than 5 nM. The same measure, in the same setting: with `O=c1cc(-c2ccnc3[nH]c(-c4cncc(C(F)(F)F)c4)cc23)cc(N2CCCCC2C(F)(F)F)[nH]1` (centres unmarked) [Example 58, 6-[2-(Trifluoromethyl)-1-piperidyl]-4-[2-[5-(trifluoromethyl)-3-pyridyl]-1H-pyrrolo[2,3-b]pyridin-4-yl]-1H-pyridin-2-one] the figure was 7 nM. As to `O=c1cc(-c2ccnc3[nH]ccc23)cc(N2CCN(S(=O)(=O)Cc3ccc(F)cc3)CC2C(F)(F)F)[nH]1` (centres unmarked) [Example 65, 6-[4-[(4-fluorophenyl)methylsulfonyl]-2-(trifluoromethyl)piperazin-1-yl]-4-(1H-pyrrolo[2,3-b]pyridin-4-yl)-1H-pyridin-2-one], the results for the concentration for half-maximal inhibition (IC50) in experiment [1] and in experiment [2] were less than 5 nM and 176 nM, respectively. The matching figures for `CCS(=O)(=O)N1CCN(c2cc(-c3ccnc4[nH]ccc34)cc(=O)[nH]2)C(C(F)(F)F)C1` (centres unmarked) [Example 71, 6-[4-Ethylsulfonyl-2-(trifluoromethyl)piperazin-1-yl]-4-(1H-pyrrolo[2,3-b]pyridin-4-yl)-1H-pyridin-2-one]: less than 5 nM and 308 nM. On the same counts, the results for `CCS(=O)(=O)N1CCN(c2cc(-c3ccnc4[nH]c(C5CC5)cc34)cc(=O)[nH]2)C(C(F)(F)F)C1` (centres unmarked) [Example 72, 4-(2-Cyclopropyl-1H-pyrrolo[2,3-b]pyridin-4-yl)-6-[4-ethylsulfonyl-2-(trifluoromethyl)piperazin-1-yl]-1H-pyridin-2-one] are less than 5 nM and 19 nM.

For the compound `CCS(=O)(=O)N1CCN(c2cc(-c3ccnc4[nH]c(C)cc34)cc(=O)[nH]2)C(C(F)(F)F)C1` (centres unmarked) [Example 73, 6-[4-Ethylsulfonyl-2-(trifluoromethyl)piperazin-1-yl]-4-(2-methyl-1H-pyrrolo[2,3-b]pyridin-4-yl)-1H-pyridin-2-one], the results for the IC50 in experiment [1] and in experiment [2] were less than 5 nM and 28 nM, respectively. On to `CCS(=O)(=O)N1CCN(c2cc(-c3ccnc4[nH]c(C#N)cc34)cc(=O)[nH]2)C(C(F)(F)F)C1` (centres unmarked) [Example 74, 4-[2-[4-Ethylsulfonyl-2-(trifluoromethyl)piperazin-1-yl]-6-oxo-1H-pyridin-4-yl]-1H-pyrrolo[2,3-b]pyridine-2-carbonitrile], for which the IC50 in experiment [1] is less than 5 nM; in experiment [2], 89 nM.

Take `O=c1cc(-c2ccnc3[nH]c(C4CC4)cc23)cc(-c2ccccc2C(F)(F)F)[nH]1` [Example 79, 4-(2-cyclopropyl-1H-pyrrolo[2,3-b]pyridin-4-yl)-6-[2-(trifluoromethyl)phenyl]-1H-pyridin-2-one]: in experiment [1], the IC50 is less than 5 nM. Still for that read-out and setting: with `N#Cc1cc2c(-c3cc(-c4ccccc4C(F)(F)F)[nH]c(=O)c3)ccnc2[nH]1` [Example 80, 4-[2-Oxo-6-[2-(trifluoromethyl)phenyl]-1H-pyridin-4-yl]-1H-pyrrolo[2,3-b]pyridine-2-carbonitrile] the figure was less than 5 nM. In the case of `CS(=O)(=O)N1CCN(c2cc(-c3ccnc4[nH]ncc34)cc(=O)[nH]2)C(C(F)(F)F)C1` (centres unmarked) [Example 88, 6-[4-Methylsulfonyl-2-(trifluoromethyl)piperazin-1-yl]-4-(1H-pyrazolo[3,4-b]pyridin-4-yl)-1H-pyridin-2-one], the concentration for half-maximal inhibition (IC50) in experiment [1] is less than 5 nM.

The term IC50 denotes the point on the concentration scale where inhibition reaches its midpoint.
